Source: patent publication US20230233541A1, “SUBSTITUTED BENZAMIDES AS MODULATORS OF TREX1” (Constellation Pharmaceuticals, Inc., priority 2020, published 2023)

Assays:
full length human TREX1 = biological target: T1, full length human TREX1 (Homo sapiens, UniProt Q9NSU2); test: TREX1 Biochemical Assay (fluorescence assay, degradation of dsDNA substrate); conditions: 150 pM TREX1, 60 nM dsDNA substrate, 25 minutes at room temperature; read-out: hTREX1 EC50
T1 construct: N-terminally His-Tev tagged full length human TREX1; His-Tev (His tag with TEV protease site) (N); made in house; host or cells: E. coli
T1 sequence (Q9NSU2 1-314): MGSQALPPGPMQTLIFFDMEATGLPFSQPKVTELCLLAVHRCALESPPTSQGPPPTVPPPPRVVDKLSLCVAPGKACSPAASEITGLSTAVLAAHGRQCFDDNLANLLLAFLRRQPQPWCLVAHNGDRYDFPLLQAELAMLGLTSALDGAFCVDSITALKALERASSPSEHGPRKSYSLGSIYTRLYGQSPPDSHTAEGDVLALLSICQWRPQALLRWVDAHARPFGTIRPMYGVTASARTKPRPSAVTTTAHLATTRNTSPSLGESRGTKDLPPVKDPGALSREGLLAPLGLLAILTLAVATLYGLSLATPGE
How it was run: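 E. coli-expressed His-Tev-tagged full-length TREX1 (150 pM) with 60 nM quenched-fluorophore dsDNA in Tris pH 7.4, 150 mM NaCl, 100 mM MgCl2, 1% DMSO, 25 min room temperature, 10-point dose-response. EDTA stop; fluorescence 615 nm (ex 570 nm); IC50 from four-parameter fit against pre-quenched and no-inhibitor controls.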

[1] = biological target: T2, human TREX2 (residues M44-A279) (Homo sapiens, UniProt Q9BQ50); test: TREX2 Biochemical Assay (fluorescence assay, degradation of dsDNA substrate); conditions: 2.5 nM TREX2, 60 nM dsDNA substrate, 25 minutes at room temperature; read-out: hTREX2 EC50
T2 construct: human TREX2 (residues M44-A279, expressed in E. coli); His-Tev (His tag with TEV protease site) (N); made in house; host or cells: E. coli
T2 sequence (Q9BQ50 44-279 isoform Q9BQ50-1): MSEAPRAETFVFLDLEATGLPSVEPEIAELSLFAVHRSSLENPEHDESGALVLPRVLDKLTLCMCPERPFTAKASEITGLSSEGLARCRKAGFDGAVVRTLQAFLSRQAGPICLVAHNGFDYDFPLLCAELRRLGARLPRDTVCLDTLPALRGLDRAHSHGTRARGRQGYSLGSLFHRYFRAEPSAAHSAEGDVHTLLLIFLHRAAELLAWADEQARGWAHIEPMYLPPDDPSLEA
How it was run: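 His-Tev-tagged human TREX2 (M44-A279, E. coli-expressed) at 2.5 nM final, with 60 nM TEX615/quencher-labelled dsDNA in pH 7.4 Tris buffer with MgCl2 and 1.0% DMSO, 10-point dose-response, 25 min at room temperature, then EDTA quench. Fluorescence read at 615 nm (ex 570 nm). IC50 from four-parameter fit against pre-quenched and no-inhibitor controls.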

Compound `O=C(O)CC[C@@H](c1ccccc1Cl)N(Cc1cccnc1)C(=O)c1cc(F)cc(F)c1` [Compound 244] has an EC50 (full length human TREX1) of less than 0.1 µM and an EC50 [1] of 10 to 100 µM.
Compound `O=C(O)CC[C@H](c1ccccc1Cl)N(Cc1cccnc1)C(=O)c1cc(F)cc(F)c1` [Compound 245] has an EC50 (full length human TREX1) of 1 to 10 µM and an EC50 [1] of 10 to 100 µM.
In the case of `O=C(O)c1ccc(CN(Cc2cccc(Cl)c2Cl)C(=O)c2cc(F)cc(F)c2)c(O)n1` [Compound 247], the EC50 (full length human TREX1) is reported as 0.1 to 1 µM and the EC50 [1] is reported as 10 to 100 µM.
`NCCC[C@@H](c1cccc(Cl)c1Cl)N(Cc1cccnc1)C(=O)c1cc(F)cc(F)c1` [Compound 248] was tested, and the EC50 (full length human TREX1) was less than 0.1 µM and the EC50 [1] was 10 to 100 µM.
Compound `NCCC[C@H](c1cccc(Cl)c1Cl)N(Cc1cccnc1)C(=O)c1cc(F)cc(F)c1` [Compound 249] has an EC50 (full length human TREX1) of 1 to 10 µM and an EC50 [1] of 10 to 100 µM.
Work on `CC[C@@H](c1cccc(Cl)c1OC)N(Cc1cnc(C(=O)O)c(N)c1)C(=O)c1cc(F)cc(F)c1` [Compound 250] yielded an EC50 (full length human TREX1) of less than 0.1 µM and an EC50 [1] of 10 to 100 µM.
Work on `CC[C@@H](c1cccc(OC)c1Cl)N(Cc1cnc(C(=O)O)c(N)c1)C(=O)c1cc(F)cc(F)c1` [Compound 252] yielded an EC50 (full length human TREX1) of less than 0.1 µM and an EC50 [1] of 10 to 100 µM.
`CC[C@H](c1cccc(Cl)c1Cl)N(Cc1ccc(C(=O)O)nc1)C(=O)c1cc(F)cc(F)c1` [Compound 254] gave an EC50 (full length human TREX1) of less than 0.1 µM and an EC50 [1] of 1 to 10 µM.
In the case of `CC[C@H](c1cccc(Cl)c1Cl)N(Cc1ccc(C(=O)O)nc1)C(=O)c1cc(F)cc(F)c1` [Compound 255], the EC50 (full length human TREX1) is reported as less than 0.1 µM and the EC50 [1] is reported as less than 1 µM.
Compound `O=C(O)c1ncc(CN(Cc2cccc(Cl)c2Cl)C(=O)c2cc(F)cc(F)c2)cc1O` [Compound 257] has an EC50 (full length human TREX1) of less than 0.1 µM and an EC50 [1] of 10 to 100 µM.
Compound `CS(=O)(=O)NC(=O)c1ccc(CN(Cc2cccc(Cl)c2Cl)C(=O)c2cccc(F)c2)cn1` [Compound 259] has an EC50 (full length human TREX1) of 1 to 10 µM and an EC50 [1] greater than 100 µM.
Work on `O=C(c1cc(F)cc(F)c1)N(Cc1cccnc1)[C@H](CCO)c1ccc(Cl)cc1Cl` [Compound 260] yielded an EC50 (full length human TREX1) of less than 0.1 µM and an EC50 [1] of 1 to 10 µM.
With `O=C(c1cc(F)cc(F)c1)N(Cc1cccnc1)[C@@H](CCO)c1ccc(Cl)cc1Cl` [Compound 261] the EC50 (full length human TREX1) was 0.1 to 1 µM and the EC50 [1] was 10 to 100 µM.
`O=C(c1cc(F)cc(F)c1)N(Cc1ccc(-c2noc(=O)[nH]2)nc1)Cc1cccc(Cl)c1Cl` [Compound 262] showed an EC50 (full length human TREX1) of 0.1 to 1 µM and an EC50 [1] of 1 to 10 µM.
